{"source": "the NIST ThermoML archive (doi:10.1016/j.tca.2006.10.012)", "conditions": "300 K; 101.33 kPa; Crystal; Coaxial cylinder method", "note": "Numbers after ± are expanded uncertainties.", "data": [{"smiles": "[BH3-][NH3+]", "note": "[ammonia borane]", "values": [{"measurement": "thermal conductivity", "result": "15 ± 3", "unit": "W/m/K"}]}]}
